According to US20200055839A1 (priority 2017, published 2020):

The compounds below were run on NL-RLuc virus (assay: Inhibition of HIV replication (NL-RLuc virus, luciferase readout in MT-2 cells)). Details: Human immunodeficiency virus 1, MT2, 120 h, MT-2 cells infected with NL-RLuc virus, 5 days of incubation, 10% FBS, at least 2 experiments.
Assay type: cell-based
Procedure, shortened: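 MT-2 cells infected with NL4-3-derived virus carrying Renilla luciferase in place of part of nef, grown 5 days with serial compound dilutions in RPMI 1640/10% FBS. Virus growth read as luciferase expression. EC50 from median effect equation, at least 2 experiments.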
Compound `Cc1ncc(-c2ccc([C@@H](O)CC(C)C)nc2)c(N2CCC(C)(C)CC2)c1[C@H](OC(C)(C)C)C(=O)O` [Example 432, (S)-2-tert-Butoxy-2-(4-(4,4-dimethylpiperidin-1-yl)-6′-((S)-1-hydroxy-3-methylbutyl)-6-methyl-3, 3′-bipyridin-5-yl)acetic acid] has an EC50 of 32 nM. Work on `Cc1ncc(-c2ccc([C@H](O)CC(C)C)nc2)c(N2CCC(C)(C)CC2)c1[C@H](OC(C)(C)C)C(=O)O` [Example 433, (S)-2-tert-butoxy-2-(4-(4,4-dimethylpiperidin-1-yl)-6′-((R)-1-hydroxy-3-methylbutyl)-6-methyl-3,3′-bipyridin-5-yl)acetic acid] yielded an EC50 of 25 nM. For `Cc1ncc(-c2ccc(OCC(C)C)nc2F)c(N2CCC(C)(C)CC2)c1[C@H](OC(C)(C)C)C(=O)O` [Example 434, (2S)-2-tert-Butoxy-2-(4-(4,4-dimethylpiperidin-1-yl)-2′-fluoro-6′-isobutoxy-6-methyl-3, 3′-bipyridin-5-yl)acetic acid], the EC50 was 13 nM. `Cc1ncc(-c2ccc(F)nc2OCC(C)C)c(N2CCC(C)(C)CC2)c1[C@H](OC(C)(C)C)C(=O)O` [Example 435, (2S)-2-tert-Butoxy-2-(4-(4,4-dimethylpiperidin-1-yl)-6′-fluoro-2′-isobutoxy-6-methyl-3, 3′-bipyridin-5-yl)acetic acid] showed an EC50 of 501 nM. `Cc1ncc(-c2ccc(NCC(C)C)nc2)c(N2CCC(C)(C)CC2)c1[C@H](OC(C)(C)C)C(=O)O` [Example 436, (S)-2-tert-Butoxy-2-(4-(4,4-dimethylpiperidin-1-yl)-6′-(isobutylamino)-6-methyl-3, 3′-bipyridin-5-yl)acetic acid] showed an EC50 of 7 nM. `CCCCNc1ccc(-c2cnc(C)c([C@H](OC(C)(C)C)C(=O)O)c2N2CCC(C)(C)CC2)cn1` [Example 437, (S)-2-tert-Butoxy-2-(6′-(butylamino)-4-(4,4-dimethylpiperidin-1-yl)-6-methyl-3, 3′-bipyridin-5-yl)acetic acid] showed an EC50 of 9 nM. Work on `Cc1ncc(-c2ccc(OC(C)C(C)C)nc2)c(N2CCC(C)(C)CC2)c1[C@H](OC(C)(C)C)C(=O)O` (stereo partly drawn) [Example 438, (2S)-2-tert-Butoxy-2-(4-(4,4-dimethylpiperidin-1-yl)-6-methyl-6′-(3-methylbutan-2-yloxy)-3, 3′-bipyridin-5-yl)acetic acid] yielded an EC50 of 14 nM. `Cc1ncc(-c2ccc(OC(C)CC(C)C)nc2)c(N2CCC(C)(C)CC2)c1[C@H](OC(C)(C)C)C(=O)O` (stereo partly drawn) [Example 439, (2S)-2-tert-Butoxy-2-(4-(4,4-dimethylpiperidin-1-yl)-6-methyl-6′-(4-methylpentan-2-yloxy)-3, 3′-bipyridin-5-yl)acetic acid] showed an EC50 of 15 nM. `CCCCNc1ccc(-c2cnc(C)c([C@H](OC(C)(C)C)C(=O)O)c2N2CCC(C)(C)CC2)nc1` [Example 441, (S)-2-(tert-Butoxy)-2-(5-(butylamino)-4′-(4,4-dimethylpiperidin-1-yl)-6′-methyl-[2, 3′-bipyridin]-5′-yl)acetic acid] was tested, and the EC50 was 7 nM. `CCCCN(C)c1ccc(-c2cnc(C)c([C@H](OC(C)(C)C)C(=O)O)c2N2CCC(C)(C)CC2)nc1` [Example 442, (S)-2-(tert-Butoxy)-2-(5-(butyl(methyl)amino)-4′-(4,4-dimethylpiperidin-1-yl)-6′-methyl-[2, 3′-bipyridin]-5′-yl)acetic acid] was tested, and the EC50 was 5 nM.
